In the NIST ThermoML archive (doi:10.1021/je0340248):

Assay: xn = mol fraction of the nth substance listed
Conditions: 101 kPa, Liquid

CC(O)CO (stereo not drawn) [1,2-propanediol] + CCCCOC(C)=O
Conditions | mass density, 298.15 K [kg/m3] | mass density, 303.15 K [kg/m3] | mass density, 308.15 K [kg/m3] | mass density, 313.15 K [kg/m3] | speed of sound, 298.15 K [m/s] | speed of sound, 308.15 K [m/s] | viscosity, 298.15 K [mPa·s] | viscosity, 308.15 K [mPa·s]
x2 = 0.0445 | 1020.01 | 1016.1 | 1012.28 | 1008.28 | 1467 | 1429 | 31.87 | 18.51
x2 = 0.1493 | 993.58 | 989.44 | 985.19 | 980.98 | 1407 | 1372 | 16.1 | 10.19
x2 = 0.2487 | 972.28 | 968.01 | 963.42 | 959.09 | 1355 | 1322 | 8.935 | 6.083
x2 = 0.3511 | 953.32 | 948.95 | 944.08 | 939.65 | 1310 | 1280 | 5.175 | 3.762
x2 = 0.446 | 937.92 | 933.47 | 928.39 | 923.85 | 1276 | 1246 | 3.295 | 2.523
x2 = 0.4973 | 930.34 | 925.83 | 920.66 | 916.07 | 1260 | 1230 | 2.638 | 2.071
x2 = 0.5491 | 923.15 | 918.58 | 913.33 | 908.68 | 1247 | 1217 | 2.141 | 1.719
x2 = 0.6504 | 910.32 | 905.62 | 900.23 | 895.46 | 1226 | 1194 | 1.489 | 1.241
x2 = 0.7495 | 899.15 | 894.34 | 888.84 | 883.97 | 1210 | 1178 | 1.106 | 0.947
x2 = 0.8489 | 889.19 | 884.29 | 878.67 | 873.72 | 1200 | 1165 | 0.87 | 0.759
x2 = 0.946 | 880.55 | 875.62 | 869.86 | 864.9 | 1194 | 1155 | 0.727 | 0.64
